# Laboratory results as given in article PMC3478977, “Enabling structure-based drug design of Tyk2 through co-crystallization with a stabilizing aminoindazole inhibitor” (BMC Structural Biology, 2012).
# What was measured:
# Jak3 = target: T1, Jak3 (Homo sapiens, UniProt P52333); assay: trFRET kinase activity assay, Jak3; assay type: biochemical; conditions: 1 μM ATP, mean and standard error; read-out: IC50, inhibition of Jak3 enzyme activity
# T1 construct: purchased Upstate/Millipore #14–629
# T1 sequence (P52333 1-1124): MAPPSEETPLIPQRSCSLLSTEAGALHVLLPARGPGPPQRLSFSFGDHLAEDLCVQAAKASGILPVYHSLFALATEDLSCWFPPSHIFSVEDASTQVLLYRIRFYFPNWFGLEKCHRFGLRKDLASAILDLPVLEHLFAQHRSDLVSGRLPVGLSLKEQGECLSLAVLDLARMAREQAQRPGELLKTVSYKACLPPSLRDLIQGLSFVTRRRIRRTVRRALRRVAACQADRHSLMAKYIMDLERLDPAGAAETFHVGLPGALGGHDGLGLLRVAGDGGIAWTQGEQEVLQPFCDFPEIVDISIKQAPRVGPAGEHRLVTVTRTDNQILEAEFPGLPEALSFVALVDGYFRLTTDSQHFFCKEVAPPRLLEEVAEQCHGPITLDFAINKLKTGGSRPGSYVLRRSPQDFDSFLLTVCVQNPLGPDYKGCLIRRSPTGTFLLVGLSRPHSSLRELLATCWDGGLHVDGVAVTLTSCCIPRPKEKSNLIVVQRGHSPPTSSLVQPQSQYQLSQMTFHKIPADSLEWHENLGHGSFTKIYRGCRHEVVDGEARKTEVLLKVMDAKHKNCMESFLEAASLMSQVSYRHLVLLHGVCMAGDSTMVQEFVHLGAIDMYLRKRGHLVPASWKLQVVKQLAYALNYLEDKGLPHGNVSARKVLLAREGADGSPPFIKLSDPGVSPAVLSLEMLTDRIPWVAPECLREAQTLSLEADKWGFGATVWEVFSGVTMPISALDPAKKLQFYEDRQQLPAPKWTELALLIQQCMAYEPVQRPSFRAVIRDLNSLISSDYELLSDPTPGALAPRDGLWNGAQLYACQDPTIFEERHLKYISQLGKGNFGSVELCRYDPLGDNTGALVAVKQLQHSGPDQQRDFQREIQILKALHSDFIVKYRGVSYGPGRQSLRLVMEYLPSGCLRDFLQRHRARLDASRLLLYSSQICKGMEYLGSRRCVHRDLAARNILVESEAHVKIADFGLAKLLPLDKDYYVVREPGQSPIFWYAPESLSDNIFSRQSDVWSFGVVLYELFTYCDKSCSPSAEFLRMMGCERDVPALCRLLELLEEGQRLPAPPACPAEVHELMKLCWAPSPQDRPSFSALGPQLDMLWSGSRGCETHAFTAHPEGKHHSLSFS
# Experimental: (§1) After 60 min incubation at room temperature, the reaction was quenched by addition of EDTA (final conc. 100 μM) and developed by addition of revelation reagents (final approximate concentrations: 30 mM HEPES pH 7.0, 0.06% BSA, 0.006% Tween-20, 0.24 M KF, 80 ng/mL PT66K (europium-labelled anti-phosphotyrosine antibody, cat #61T66KLB, Cisbio, Bedford, MA) and 3.12 μg/mL SAXL (Phycolink streptavidin-allophycocyanin acceptor, cat #PJ25S, Prozyme, San Leandro, CA)). The developed reaction was incubated in the dark either at 4°C overnight or at room temperature for ~1 h, then read with a time-resolved fluorescence detector (Rubystar, BMG Labtech) using a 337 nm laser for excitation and emission wavelengths of 620 nm and 665 nm. Within the linear range of the assay, this signal is directly related to phosphorylated product and was used to calculate IC50 values. Typically, seven-point inhibitor dilutions (5-fold; from 50 μM to 0.0032 μM) were used. IC50 values were calculated by fitting the following equation: […]
# (§2) where [I] is total inhibitor concentration, Y is the percentage of activity (relative to that seen in no-inhibitor control) at a given inhibitor concentration, and Ymax is the maximum activity generated in the absence of inhibitor.
# (§3) Purified Jak2 and Jak3 were purchased from Upstate/Millipore (cat numbers #14–640 and #14–629). […]
# Jak1 = target: T2, Jak1 (Homo sapiens, UniProt P23458); assay: trFRET kinase activity assay, Jak1; assay type: biochemical; conditions: Jak1 (845–1142) GST fusion, 1 μM ATP, mean and standard error; read-out: IC50, inhibition of Jak1 enzyme activity
# T2 construct: Jak1 (residues 845–1142) was expressed in Sf9 cells; GST; made in house; host or cells: Sf9 insect cells
# Experimental: as §1, §2, §3
# Jak2 = target: T3, Jak2 (Homo sapiens, UniProt O60674); assay: trFRET kinase activity assay, Jak2; assay type: biochemical; conditions: 1 μM ATP, mean and standard error; read-out: IC50, inhibition of Jak2 enzyme activity
# T3 construct: purchased Upstate/Millipore #14–640
# Experimental: as §1, §2, §3
# [1] = test system: Mouse Tyk2 kinase domain (residues 870–1170; Asp1016Ala mutant); assay: Partial proteolysis of Tyk2 kinase domain by thermolysin with and without ligand; conditions: 30 μM compound, sum of ~27 and ~29 kDa peaks, 0 to 90 minutes, room temperature
# Experimental: Mouse Tyk2 kinase domain (0.25 mg/mL, residues 870–1170; Asp1016Ala mutant) was incubated for 0 to 90 minutes with thermolysin (0.25 mg/mL) at room temperature in 50 mM HEPES pH 6.7, 150 mM NaCl, 5% glycerol, and 2.5 mM CaCl2 in the presence and absence of 30 μM Compound 2. EDTA (final conc 100 mM) was used as stop solution to quench the proteolysis reactions. Samples were separated by use of a Caliper LC90 system and the remaining substrate and product bands were quantitated. Intact (undigested) Tyk2 ran in this system at ~29 kDa. Addition of thermolysin yielded a partial digestion product of ~27 kDa (Additional file 1: Figure 1) within 5 minutes, which was unaffected by addition of Compound 2. Subsequent degradation products were strongly influenced by the presence of Compound 2 (Additional file 1: Figure S1). Therefore the sum of the intensities of the 29 and 27 kDa peaks was used as a measure of inhibitor-dependent resistance to thermolysin digestion. […]
# In the absence of inhibitor, a 20 kDa fragment is generated after ~1-5 minutes and subsequently degraded. […] Quantitated values of Tyk2 peaks of ~27 and ~29 kDa during digestion with thermolysin, in the absence or presence of 30 μM Compound 2 were used to monitor overall degradation rates in Figure 2.
# thermolysin = target: T4, thermolysin (Bacillus thermoproteolyticus, UniProt P00800); assay: Digestion of BSA control by thermolysin; assay type: biochemical; conditions: BSA control digested by thermolysin in the same buffer
# T4 sequence (P00800 233-548): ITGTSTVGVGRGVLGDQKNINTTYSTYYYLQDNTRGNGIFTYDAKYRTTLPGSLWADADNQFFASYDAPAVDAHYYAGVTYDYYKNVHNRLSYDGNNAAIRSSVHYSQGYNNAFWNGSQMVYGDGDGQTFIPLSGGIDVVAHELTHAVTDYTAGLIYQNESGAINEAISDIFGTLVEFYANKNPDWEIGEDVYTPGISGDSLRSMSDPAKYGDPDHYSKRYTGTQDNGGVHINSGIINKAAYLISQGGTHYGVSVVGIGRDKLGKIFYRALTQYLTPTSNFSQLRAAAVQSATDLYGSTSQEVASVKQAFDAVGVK
# human Tyk2 = target: T5, human Tyk2 (Homo sapiens, UniProt P29597); assay: trFRET kinase activity assay, Tyk2; assay type: biochemical; conditions: human Tyk2 (880–1185), 1 μM ATP, mean and standard error; read-out: IC50, inhibition of Tyk2 enzyme activity
# T5 construct: human Tyk2 enzyme (residues 880–1185); expressed in Sf9 cells; His tag (cleavable); TEV site per construct name His-Tev-huTyk2 (880–1185)-Flag) (N); Flag (C); made in house; host or cells: Sf9 insect cells
# T5 sequence (P29597 880-1185): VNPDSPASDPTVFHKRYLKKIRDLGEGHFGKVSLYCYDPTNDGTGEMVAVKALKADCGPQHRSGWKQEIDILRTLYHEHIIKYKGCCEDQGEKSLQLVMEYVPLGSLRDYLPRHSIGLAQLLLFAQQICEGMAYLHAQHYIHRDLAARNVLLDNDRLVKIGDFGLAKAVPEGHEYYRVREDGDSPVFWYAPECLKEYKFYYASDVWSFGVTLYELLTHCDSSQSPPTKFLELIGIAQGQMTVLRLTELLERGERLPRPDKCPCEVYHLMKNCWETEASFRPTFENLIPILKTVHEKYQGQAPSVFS
# Experimental: as §1, §2
# T3 sequence (O60674 808-1132 limits assumed): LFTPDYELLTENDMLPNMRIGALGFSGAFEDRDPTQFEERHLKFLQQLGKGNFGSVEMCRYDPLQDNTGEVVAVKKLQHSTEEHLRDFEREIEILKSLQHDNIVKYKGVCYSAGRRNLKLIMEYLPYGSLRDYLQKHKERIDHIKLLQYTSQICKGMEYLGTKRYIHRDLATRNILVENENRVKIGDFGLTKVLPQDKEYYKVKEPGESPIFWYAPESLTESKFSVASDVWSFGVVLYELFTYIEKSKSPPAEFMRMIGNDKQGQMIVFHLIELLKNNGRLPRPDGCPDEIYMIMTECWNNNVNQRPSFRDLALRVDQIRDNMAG
# T2 sequence (P23458 845-1142, species assumed): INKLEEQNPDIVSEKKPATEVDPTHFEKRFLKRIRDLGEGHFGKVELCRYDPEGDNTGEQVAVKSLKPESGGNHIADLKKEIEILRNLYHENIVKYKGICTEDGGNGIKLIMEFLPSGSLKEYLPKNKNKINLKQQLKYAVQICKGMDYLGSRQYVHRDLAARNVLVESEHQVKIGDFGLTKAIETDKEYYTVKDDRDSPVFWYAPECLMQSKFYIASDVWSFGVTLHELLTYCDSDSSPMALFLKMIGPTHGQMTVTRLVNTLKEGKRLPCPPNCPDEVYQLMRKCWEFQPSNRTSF
Structure (SMILES),IC50 (Jak3),IC50 (Jak1),IC50 (Jak2),reduction of the rate of degradation of the enzyme to smaller forms (<27 kDa) by thermolysin [1],inhibition of thermolysin protease activity (BSA digestion) (thermolysin),IC50 (human Tyk2)
"Nc1n[nH]c2ccc(-c3ccc(NS(=O)(=O)c4cccc(Cl)c4)cc3)cc12 [Compound 1, N-[4-(3-Amino-1H-indazol-5-yl)-phenyl]-3-chloro-benzenesulfonamide]",42 ± 1 nM,5 ± 0.4 nM,7 ± 2 nM,,,
"O=C(Nc1n[nH]c2ccc(-c3ccc(NS(=O)(=O)c4cccc(Cl)c4)cc3)cc12)c1ccco1 [Compound 2, Furan-2-carboxylic acid {5-[4-(3-chloro-benzenesulfonylamino)-phenyl]-1 H-indazol-3-yl}amide]",41 ± 3 nM,10 ± 0.1 nM,4 ± 1 nM,13 fold,not an inhibitor of thermolysin protease activity,< 3 nM
